Assay results taken from patent US20250236616A1, “IMMUNOMODULATING AZALIDES” (Zoetis Services LLC, priority 2021, published 2025).

Assays:
Type in all cases: cell-based
IL-1β = assay: Whole bovine blood assay, LPS-induced IL-1β (inhibition / overstimulation); details: drug concentration giving overstimulation (OS) of LPS-induced IL-1β, top concentration 250 μM
Procedure: Whole Blood Assay-Fresh whole bovine blood samples were collected into heparinized vacutainer tubes. Assay plates were prepared with 25 μL of drug diluted in PBS at varying concentration in 96 round bottom wells, then 225 μL of blood was added and plates incubated at 37° C. for 4 hours. Cells were stimulated with LPS (or PBS for controls) by adding 25 μL to the plates at a final concentration of 1 μg/mL and incubated at 37° C. for 18 hours. To collect plasma, plates were centrifuged at 2,000×g for 10 minutes and 100 μL of supernatant was transferred to a 96 well polypropylene plate that was sealed and stored at −80° C. Samples were assayed for cytokines using the Meso Scale Discovery (MSD) platform (described below). This same MSD platform was used to assess cytokines in the plasma collected directly from drug treated animals.
Cytokine Detection—An MSD U-Plex cytokine assay was developed following the MSD U-Plex protocol guide and included biotinylated capture antibodies against: bovine Interleukin (IL)-1β (Biorad), bovine IL-6 (R&D Systems) and bovine tumor necrosis factor (TNF)-α (R&D Systems). The anti-IL-1β antibody was biotinylated using EZ-Link Sulfo-NHS-Biotin (Thermo Scientific) at a challenge ratio of 1:20 according to manufacturer instructions. Assay calibrators (Kingfisher) were diluted to a concentration of […] in control lithium heparin plasma, followed by 4-fold serial dilutions into plasma. The detection antibodies were sulfo-tagged following the MSD quick guide conjugation protocol using a challenge ratio of 1:20. Antibodies were used at the following concentrations: anti-IL-1β at 1 μg/mL, anti-IL-6 at 1 μg/mL and anti-TNF-α at 0.5 μg/mL. Cytokines were quantified according to manufacturer's instructions using a chemiluminescent readout. In brief, 0.5 mL of all biotinylated antibodies were diluted to 10 μg/mL with Diluent 100 and paired to their respective linkers by adding 750 μL of supplied Linker solution and incubated for 30 minutes followed by addition of Stop solution for another 30 minutes. The linked antibodies were then diluted 10-fold into Stop solution. Plates were coated by adding 50 μL of antibody solutions per well and incubated covered and shaking for 1 hour at room temperature. Plates were washed three times with PBS/Tween20 prior to samples or standards being added at 30 μL per well and incubated as above. Plates were washed three times before detection antibodies were added along with 2% goat and rabbit serum to block and incubated same as above. Plates were washed a further three times before addition of 150 μL 2X Read buffer and read immediately on the SI6000 instrument (MSD). For soluble protein levels, a BCA protein kit (Thermofisher) was used. The cytokine concentrations (pg/mL) were normalized to the total protein levels for each sample. [Bassel et. al., BMC Veterinary Research (2020) 16:168]
Therefore, a fresh whole bovine blood assay was developed with LPS as a stimulant (TLR-4 agonist) and with IL-1β and TNF-α as the read-out. Compounds of the invention were evaluated against a positive control for their ability to inhibit LPS-induced IL-1β and TNF-α as an overall evaluation of relative potency and modulation of target pathways.
For M9, the top dose of 500 μM was not high enough to determine an overstimulation of IL-1 B which was recorded as not applicable (n/a). The enhanced response indicates increased concentration of IL-1β cytokine at the drug concentration indicated. This is generally observed when compounds are out of range (high concentration) and stimulate a cellular toxicity signal. Further data supporting this hypothesis includes murine studies using a P. multocida infection in mice.
TNFα is a cell signaling protein, cytokine, that plays a key role in both acute and chronic inflammation. […]

IL-6 = assay: Whole bovine blood assay, LPS-induced IL-6; details: fresh whole bovine blood, LPS stimulant; top drug concentration 250 μM
TNF-α = assay: Whole bovine blood assay, LPS-induced TNF-α; details: fresh whole bovine blood, LPS stimulant; top drug concentration 250 μM
Outline: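 Fresh heparinized bovine whole blood was preincubated with compound 4 h at 37 °C, then stimulated with LPS (final 1 μg/mL) for 18 h at 37 °C. Plasma TNF-α was quantified by MSD U-Plex chemiluminescent immunoassay, normalized to total protein (BCA), and IC50 taken for LPS-induced TNF-α inhibition.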

Compound	IC50 (IL-6) [µM]	IC50 (TNF-α) [µM]	minimal effective concentration (IL-1β) [µM]
CC[C@H]1OC(=O)[C@H](C)[C@@H](O)[C@H](C)[C@@H](O[C@@H]2O[C@H](C)C[C@H](N(C)S(=O)(=O)C3CC3)[C@H]2Oc2ccccc2)[C@](C)(O)C[C@@H](C)CN[C@H](C)[C@@H](O)[C@]1(C)O [Example A-32]	167	–	100
CC[C@H]1OC(=O)[C@H](C)[C@@H](O[C@H]2C[C@@](C)(OC)[C@](O)(CNCCCN(C)C)[C@H](C)O2)[C@H](C)[C@@H](O[C@@H]2O[C@H](C)C[C@H](N(C)S(=O)(=O)Nc3ccc(C(F)(F)F)cc3)[C@H]2O)[C@](C)(O)C[C@@H](C)CN[C@H](C)[C@@H](O)[C@]1(C)O [Example B-74]	–	33	16
CC[C@H]1OC(=O)[C@H](C)[C@@H](O[C@H]2C[C@@](C)(OC)[C@](O)(CNCCCN3CCCCC3)[C@H](C)O2)[C@H](C)[C@@H](O[C@@H]2O[C@H](C)C[C@H](N(C)S(=O)(=O)Nc3ccc(C(F)(F)F)cc3)[C@H]2O)[C@](C)(O)C[C@@H](C)CN[C@H](C)[C@@H](O)[C@]1(C)O [Example B-75]	–	31	>250
CC[C@H]1OC(=O)[C@H](C)[C@@H](O[C@H]2C[C@@](C)(OC)[C@](O)(CNCCCN3CCCC3=O)[C@H](C)O2)[C@H](C)[C@@H](O[C@@H]2O[C@H](C)C[C@H](N(C)S(=O)(=O)Nc3ccc(C(F)(F)F)cc3)[C@H]2O)[C@](C)(O)C[C@@H](C)CN[C@H](C)[C@@H](O)[C@]1(C)O [Example B-87]	–	17	9
CCCNC[C@]1(O)[C@H](C)O[C@@H](O[C@H]2[C@H](C)[C@@H](O[C@@H]3O[C@H](C)C[C@H](N(C)S(=O)(=O)c4cnc(Cl)c(Br)c4)[C@H]3Oc3ccc(OC)cc3)[C@](C)(O)C[C@@H](C)CN[C@H](C)[C@@H](O)[C@](C)(O)[C@@H](CC)OC(=O)[C@@H]2C)C[C@@]1(C)OC [Example B-117]	142	–	16
CCCNC[C@]1(O)[C@H](C)O[C@@H](O[C@H]2[C@H](C)[C@@H](O[C@@H]3O[C@H](C)C[C@H](N(C)S(=O)(=O)c4cnn(-c5ccc(C(F)(F)F)cn5)c4)[C@H]3Oc3ccc(OC)cc3)[C@](C)(O)C[C@@H](C)CN[C@H](C)[C@@H](O)[C@](C)(O)[C@@H](CC)OC(=O)[C@@H]2C)C[C@@]1(C)OC [Example B-123]	4	–	6
CCCNC[C@]1(O)[C@H](C)O[C@@H](O[C@H]2[C@H](C)[C@@H](O[C@@H]3O[C@H](C)C[C@H](N(C)S(=O)(=O)c4cccnc4Cl)[C@H]3Oc3ccc(OC)cc3)[C@](C)(O)C[C@@H](C)CN[C@H](C)[C@@H](O)[C@](C)(O)[C@@H](CC)OC(=O)[C@@H]2C)C[C@@]1(C)OC [Example B-124]	4	–	6
CCCNC[C@]1(O)[C@H](C)O[C@@H](O[C@H]2[C@H](C)[C@@H](O[C@@H]3O[C@H](C)C[C@H](N(C)S(=O)(=O)c4ccccc4)[C@H]3Oc3cccc(CO)c3)[C@](C)(O)C[C@@H](C)CN[C@H](C)[C@@H](O)[C@](C)(O)[C@@H](CC)OC(=O)[C@@H]2C)C[C@@]1(C)OC [Example B-133]	24	–	16
CCCNC[C@]1(O)[C@H](C)O[C@@H](O[C@H]2[C@H](C)[C@@H](O[C@@H]3O[C@H](C)C[C@H](N(C)S(N)(=O)=O)[C@H]3O)[C@](C)(O)C[C@@H](C)CN(CCC)[C@H](C)[C@@H](O)[C@](C)(O)[C@@H](CC)OC(=O)[C@@H]2C)C[C@@]1(C)OC [Example B-158]	–	102	>250
CCCN1C[C@H](C)C[C@@](C)(O)[C@H](O[C@@H]2O[C@H](C)C[C@H](N(C)S(N)(=O)=O)[C@H]2O)[C@@H](C)[C@H](O[C@H]2C[C@@](C)(OC)[C@](O)(CN3CCCCC3)[C@H](C)O2)[C@@H](C)C(=O)O[C@H](CC)[C@@](C)(O)[C@H](O)[C@H]1C [Example C-17]	–	23	250
CC[C@H]1OC(=O)[C@H](C)[C@@H](O[C@H]2C[C@@](C)(OC)[C@](O)(CN3CCCCC3)[C@H](C)O2)[C@H](C)[C@@H](O[C@@H]2O[C@H](C)C[C@H](N(Cc3cccnc3)S(=O)(=O)Nc3ccc(C(F)(F)F)cc3)[C@H]2O)[C@](C)(O)C[C@@H](C)CN[C@H](C)[C@@H](O)[C@]1(C)O [Example C-39]	–	15	6

Further lines, with some results ahead:

IC50 (IL-6) [µM]	IC50 (TNF-α) [µM]	Compound	minimal effective concentration (IL-1β) [µM]
–	30	CCCNC[C@]1(O)[C@H](C)O[C@@H](O[C@H]2[C@H](C)[C@@H](O[C@@H]3O[C@H](C)C[C@H](N(C)S(=O)(=O)c4ccc(-n5cccn5)cc4)[C@H]3O)[C@](C)(O)C[C@@H](C)CN[C@H](C)[C@@H](O)[C@](C)(O)[C@@H](CC)OC(=O)[C@@H]2C)C[C@@]1(C)OC [Example B-19]	16
54	–	CC[C@H]1OC(=O)[C@H](C)[C@@H](O[C@H]2C[C@@](C)(OC)[C@](O)(CNCCc3ccncc3)[C@H](C)O2)[C@H](C)[C@@H](O[C@@H]2O[C@H](C)C[C@H](N(C)S(=O)(=O)c3ccc(Cl)cc3)[C@H]2O)[C@](C)(O)C[C@@H](C)CN[C@H](C)[C@@H](O)[C@]1(C)O [Example B-29]	12
20	–	CC[C@H]1OC(=O)[C@H](C)[C@@H](O[C@H]2C[C@@](C)(OC)[C@](O)(CNCCC3CCOCC3)[C@H](C)O2)[C@H](C)[C@@H](O[C@@H]2O[C@H](C)C[C@H](N(C)S(=O)(=O)c3ccc(Cl)cc3)[C@H]2O)[C@](C)(O)C[C@@H](C)CN[C@H](C)[C@@H](O)[C@]1(C)O [Example B-34]	6
–	29	CC[C@H]1OC(=O)[C@H](C)[C@@H](O[C@H]2C[C@@](C)(OC)[C@](O)(CNCCOC)[C@H](C)O2)[C@H](C)[C@@H](O[C@@H]2O[C@H](C)C[C@H](N(C)S(=O)(=O)c3ccc(Cl)cc3)[C@H]2O)[C@](C)(O)C[C@@H](C)CN[C@H](C)[C@@H](O)[C@]1(C)O [Example B-36]	16
–	150	CCCNC[C@]1(O)[C@H](C)O[C@@H](O[C@H]2[C@H](C)[C@@H](O[C@@H]3O[C@H](C)C[C@H](N(C)S(C)(=O)=O)[C@H]3O)[C@](C)(O)C[C@@H](C)CN[C@H](C)[C@@H](O)[C@](C)(O)[C@@H](CC)OC(=O)[C@@H]2C)C[C@@]1(C)OC [Example B-59]	57
–	22	CC[C@H]1OC(=O)[C@H](C)[C@@H](O[C@H]2C[C@@](C)(OC)[C@](O)(CNCCNC(C)=O)[C@H](C)O2)[C@H](C)[C@@H](O[C@@H]2O[C@H](C)C[C@H](N(C)S(=O)(=O)Nc3ccc(C(F)(F)F)cc3)[C@H]2O)[C@](C)(O)C[C@@H](C)CN[C@H](C)[C@@H](O)[C@]1(C)O [Example B-81]	15
–	68	CC[C@H]1OC(=O)[C@H](C)[C@@H](O[C@H]2C[C@@](C)(OC)[C@](O)(CNCCS(C)(=O)=O)[C@H](C)O2)[C@H](C)[C@@H](O[C@@H]2O[C@H](C)C[C@H](N(C)S(=O)(=O)c3ccc(C(F)(F)F)cc3)[C@H]2O)[C@](C)(O)C[C@@H](C)CN[C@H](C)[C@@H](O)[C@]1(C)O [Example B-126]	11
–	10	CC[C@H]1OC(=O)[C@H](C)[C@@H](O[C@H]2C[C@@](C)(OC)[C@](O)(CNCCOC(F)(F)F)[C@H](C)O2)[C@H](C)[C@@H](O[C@@H]2O[C@H](C)C[C@H](N(C)S(=O)(=O)Nc3ccc(C(F)(F)F)cc3)[C@H]2O)[C@](C)(O)C[C@@H](C)CN[C@H](C)[C@@H](O)[C@]1(C)O [Example B-129]	2
